Test results published in US20260130933A1, “PHARMACEUTICAL COMPOSITION FOR PREVENTION OR TREATMENT OF NEPHROPATHY AND/OR DIABETES MELLITUS, COMPRISING ENAVOGLIFLOZIN” (DAEWOONG PHARMACEUTICAL CO., LTD., priority 2022, published 2026).

Experiment: Example 3: phase 3 trial, enavogliflozin 0.3 mg vs dapagliflozin 10 mg once a day for 24 weeks added to metformin and gemigliptin in patients with type 2 diabetes (same endpoints, rescue drug)
Assay type: in vivo, human
Settings: week 18
Protocol: 1) when Metformin (≥1,000 mg/Day) was Administered at a Constant Dose for at Least 8 Weeks Prior to Pre-Visit (Pre-Screening) • Metformin (≥1,000 mg/day) and gemigliptin (50 mg/day) were co-administered during the 8-week stabilization period. […] 4) when Metformin (≥1,000 mg/Day) and Gemigliptin (50 mg/Day) were Co-Administered at Constant Doses for at Least 8 Weeks Prior to Pre-Visit (Prescreening) • Without a separate stabilization period, Pre-visit (pre-screening) was Visit 1 (screening).
Subjects who met the inclusion/exclusion criteria continued to receive metformin and gemigliptin while receiving a placebo of the clinical trial drug in a single-blind (subject-blinded) state for a 2-week run-in period.
Here, the randomized subjects were stratified according to the administration therapy (co-administration with two or less agents (one or two agents) or three or more agents) of a conventional hypoglycemic agent (before washout of another hypoglycemic agent) within 24 weeks prior to obtaining written informed consent and by an HbA1c value (<8% or ≥8%) at Visit 1 (screening) measured in the central laboratory.
The randomized subjects were administered two tablets of the clinical trial drug corresponding to each administration group once a day, and then visited the institution at weeks 6, 12, 18, and 24 during the 24-week administration period to conduct efficacy and safety assessments. In addition, during the clinical trial period, they were instructed to exercise regularly and control their diet without changing their daily life patterns.
• 1) Change in HbA1c at week 24 after administration of clinical trial drug compared to Visit 2 (randomization)
• 1) Change in HbA1c at each time point of weeks 6, 12, and 18 after administration of clinical trial drug compared to Visit 2 (randomization) • 2) Change in FPG at each time point of weeks 6, 12, 18, and 24 after administration of clinical trial drug compared to Visit 2 (randomization) • 3) Proportion of subjects achieving HbA1c<7% at each time point of weeks 6, 12, 18, and 24 after administration of clinical trial drug • 4) Proportion of subjects achieving HbA1c<6.5% at each time point of weeks 6, 12, 18, and 24 after administration of clinical trial drug • 5) Proportion of subjects achieving therapeutic response (HbA1c change (HbA1c at Visit 2—HbA1c at each evaluation time point)>0.5% or HbA1c<7% at each evaluation time point compared to Visit 2 (randomization)) at each time point of weeks 6, 12, 18, and 24 after administration of clinical trial drug • 6) Proportion of subjects achieving therapeutic response (HbA1c change (HbA1c at Visit 2—HbA1c at each evaluation time point)>0.7% or HbA1c<7% at each evaluation time point compared to Visit 2 (randomization)) at each time point of weeks 6, 12, 18, and 24 after administration of clinical trial drug • 7) Proportion of subjects achieving therapeutic response (HbA1c change (HbA1c at Visit 2—HbA1c at each evaluation time point)>1% or HbA1c<7% at each evaluation time point compared to Visit 2 (randomization)) at each time point of weeks 6, 12, 18, and 24 after administration of clinical trial drug

[1] = modified per-protocol set 2, enavogliflozin 0.3 mg, dapagliflozin 10 mg
[2] = per-protocol set, enavogliflozin 0.3 mg vs dapagliflozin 10 mg
[3] = per-protocol set, enavogliflozin 0.3 mg, dapagliflozin 10 mg

For `OC[C@H]1O[C@@H](c2cc(Cc3ccc(C4CC4)cc3)c(Cl)c3c2CCO3)[C@H](O)[C@@H](O)[C@@H]1O` [Enavogliflozin, (2S,3R,4R,5S,6R)-2-(7-chloro-6 (4-cyclopropylbenzyl)-2,3-dihydrobenzofuran-4-yl)-6-(hydroxymethyl)tetrahydro-2H-pyran-3,4,5-triol], the “Change from baseline in diastolic blood pressure, Median” value (modified per-protocol set 2) was −5.00 mmHg, the “Diastolic blood pressure, Mean” value (modified per-protocol set 2) was 72.53 mmHg and the “Diastolic blood pressure, Median” value (modified per-protocol set 2) was 72.00 mmHg. For the same compound, the “Change from baseline in systolic blood pressure, ANCOVA LS mean difference” value (modified per-protocol set 2, enavogliflozin 0.3 mg vs dapagliflozin 10 mg) was −1.66 mmHg, the “Change from baseline in systolic blood pressure, ANCOVA LS mean” value [1] was −6.82 mmHg and the “Change from baseline in systolic blood pressure, Mean” value [1] was −7.37 mmHg. The “Change from baseline in systolic blood pressure, Median” value [1] was −7.00 mmHg, the “Systolic blood pressure, Mean” value [1] was 119.95 mmHg and the “Systolic blood pressure, Median” value [1] was 119.00 mmHg. The “Adiponectin, Mean” value (per-protocol set) was 7.03 µg/mL, the “Adiponectin, Median” value (per-protocol set) was 6.26 µg/mL and the “Change from baseline in HOMA-IR, ANCOVA LS mean” value (per-protocol set) was −1.14. For the same compound, the “Change from baseline in HOMA-IR, LS mean difference (enavogliflozin − dapagliflozin)” value (per-protocol set) was −0.13, the “Change from baseline in HOMA-IR, Mean” value (per-protocol set) was −1.16 and the “Change from baseline in HOMA-IR, Median” value (per-protocol set) was −0.82. The “Change from baseline in HOMA-β, ANCOVA LS mean” value (per-protocol set) was 5.97, the “Change from baseline in HOMA-β, LS mean difference (enavogliflozin − dapagliflozin)” value (per-protocol set) was 1.48 and the “Change from baseline in HOMA-β, Mean” value (per-protocol set) was 6.09. For the same compound, the “Change from baseline in HOMA-β, Median” value (per-protocol set) was 4.10, the “Change from baseline in UACR, ANCOVA LS mean” value (per-protocol set) was -11.08 g/kg and the “Change from baseline in UACR, LS mean difference (enavogliflozin − dapagliflozin)” value (per-protocol set) was -2.18 g/kg. For the same compound, the “Change from baseline in UACR, Mean” value (per-protocol set) was -12.07 g/kg, the “Change from baseline in UACR, Median” value (per-protocol set) was -1.50 g/kg and the “Change from baseline in UGCR, ANCOVA LS mean” value (per-protocol set) was 58.74 mg/mg. The “Change from baseline in UGCR, LS mean difference (enavogliflozin − dapagliflozin)” value (per-protocol set) was 13.34 mg/mg, the “Change from baseline in UGCR, Mean” value (per-protocol set) was 57.23 mg/mg and the “Change from baseline in UGCR, Median” value (per-protocol set) was 54.56 mg/mg. The “Change from baseline in adiponectin, ANCOVA LS mean” value (per-protocol set) was 0.78 µg/mL, the “Change from baseline in adiponectin, LS mean difference (enavogliflozin − dapagliflozin)” value (per-protocol set) was 0.42 µg/mL and the “Change from baseline in adiponectin, Mean” value (per-protocol set) was 0.80 µg/mL. For the same compound, the “Change from baseline in adiponectin, Median” value (per-protocol set) was 0.60 µg/mL, the “Change from baseline in leptin, ANCOVA LS mean” value (per-protocol set) was -1.46 ng/mL and the “Change from baseline in leptin, LS mean difference (enavogliflozin − dapagliflozin)” value (per-protocol set) was -0.40 ng/mL. For the same compound, the “Change from baseline in leptin, Mean” value (per-protocol set) was -1.63 ng/mL, the “Change from baseline in leptin, Median” value (per-protocol set) was -0.89 ng/mL and the “HOMA-IR (insulin resistance), Mean” value (per-protocol set) was 1.74. The “HOMA-IR (insulin resistance), Median” value (per-protocol set) was 1.42, the “HOMA-β (beta-cell function), Mean” value (per-protocol set) was 49.26 and the “HOMA-β (beta-cell function), Median” value (per-protocol set) was 40.00. For the same compound, the “Leptin, Mean” value (per-protocol set) was 8.87 ng/mL, the “Leptin, Median” value (per-protocol set) was 5.86 ng/mL and the “UACR, Mean” value (per-protocol set) was 25.02 g/kg. The “UACR, Median” value (per-protocol set) was 11.30 g/kg, the “UGCR, Mean” value (per-protocol set) was 57.96 mg/mg and the “UGCR, Median” value (per-protocol set) was 54.71 mg/mg. For the same compound, the “Achieving HbA1c target of <6.5%, odds ratio (logistic regression model)” value [2] was 1.20, the “Achieving HbA1c target of <7%, odds ratio (logistic regression model)” value [2] was 1.36 and the “Change from baseline in FPG, ANCOVA LS mean difference” value [2] was -4.22 mg/dL. For the same compound, the “Change from baseline in HbA1c, ANCOVA LS mean difference” value [2] was −0.07 % p, the “Change from baseline in body weight, ANCOVA LS mean difference” value [2] was -0.15 kg and the “Change from baseline in fasting C-peptide, ANCOVA LS mean difference” value [2] was -0.02 ng/mL. For the same compound, the “Therapeutic glycemic response 1, odds ratio (logistic regression model)” value [2] was 1.02, the “Therapeutic glycemic response 2, odds ratio (logistic regression model)” value [2] was 1.09 and the “Therapeutic glycemic response 3, odds ratio (logistic regression model)” value [2] was 1.22. The “Body weight, Mean” value [3] was 66.18 kg, the “Change from baseline in FPG, ANCOVA LS mean” value [3] was -27.77 mg/dL and the “Change from baseline in FPG, Mean” value [3] was -28.00 mg/dL. The “Change from baseline in FPG, Median” value [3] was -24.00 mg/dL, the “Change from baseline in HbA1c, ANCOVA LS mean” value [3] was −0.83 % p and the “Change from baseline in HbA1c, Mean” value [3] was −0.84 % p. For the same compound, the “Change from baseline in HbA1c, Median” value [3] was −0.72 % p, the “Change from baseline in body weight, ANCOVA LS mean” value [3] was -3.16 kg and the “Change from baseline in body weight, Mean” value [3] was -3.10 kg. For the same compound, the “Change from baseline in body weight, Median” value [3] was -2.90 kg, the “Change from baseline in fasting C-peptide, ANCOVA LS mean” value [3] was -0.08 ng/mL and the “Change from baseline in fasting C-peptide, Mean” value [3] was -0.09 ng/mL. For the same compound, the “Change from baseline in fasting C-peptide, Median” value [3] was -0.10 ng/mL, the “FPG, Mean” value [3] was 111.10 mg/dL and the “FPG, Median” value [3] was 109.00 mg/dL. For the same compound, the “Fasting C-peptide, Mean” value [3] was 0.64 ng/mL, the “Fasting C-peptide, Median” value [3] was 0.60 ng/mL and the “HbA1c, Mean” value [3] was 6.95%.
